Results from article PMC8065335, “An integrative drug repositioning framework discovered a potential therapeutic agent targeting COVID-19” (Signal Transduction and Targeted Therapy, 2021).
Like-named read-outs stand apart in the source and are kept apart here.

How the values were obtained:
[1] = test system: SARS-CoV-2; experiment: inhibitor combination assay in Vero E6 cells; format: cell-based
Description: The cytotoxicity of the tested drugs on Vero E6 cells was determined by the CCK8 assays (Beyotime, China). At 48 h post addition of the tested drugs, 20 μL CCK8 was added to each well and incubated at 37 °C for 1 h. Then optical density was measured at 450 nm. The 50% cytotoxic concentration (CC50) values were calculated using GraphPad Prism 5 (GraphPad Software, USA). Vero E6 cells were seeded into 96-well plates with a density of 5 × 10^4 cells/well for incubation in DMEM medium supplemented with 10% FBS for 16 h in an incubator with 5% CO2 at 37 °C, for cells to reach 80% confluent. Then, cell culture medium of each well was removed, and PBS was used to wash the cells once, before evaluating the antiviral efficacy of the tested drugs. Four duplicated wells were made for each dose of drugs, and the cells were pretreated with different doses of antiviral drugs diluted by the cell maintenance solution (50 μL per well) for 1 h. For the virus control and cell control wells, cell medium containing DMSO or only medium of 50 μL per well was added. Next, pretreated or untreated cells in each well were infected with the virus with a multiplicity of infection (MOI) of 0.05 for 2 h. […] Then culture supernatant per well was harvested and inactivated at 56 °C for 30 min to further extract and quantify viral RNA. […]

[2] = test system: TNF-α; experiment: LPS-induced TNF-α production in PBMCs (ELISA); format: cell-based, human; conditions: both 3 μM and 1 μM; 6 h and 24 h
Description: (§1) Peripheral blood mononuclear cells (Allcells) were cultured at 37 °C at concentration 5% CO2 atmospheric on a 96-well plate in RPMI1640 cell growth medium (Gibico, Cat. 11875-093). For stimulation, PBMC cells were incubated with 1 μg/mL LPS (Sigma, Cat. L2880-25MG). To test whether CVL218 and olaparib can inhibit the production of IL-6, IL-10, IFN-γ, TNF-α, 1 μM and 3 μM concentrations of CVL218 or olaparib were added to cell culture medium for 6 and 24 h, respectively. The concentration of each cytokine was determined by ELISA using a commercial kit (BioLegend, USA).

[3] = four-week toxicity and toxicokinetic study in rats; format: in vivo, Sprague-Dawley rats; conditions: for AUC0−24: dose not given
Description: Sprague-Dawley rats were purchased from Shanghai Laboratory Animal Center, China. The animals were grouped and housed in wire cages with no more than six per cage, under good laboratory conditions (temperature 25 ± 2 °C; relative humidity 50 ± 20%) and with dark and light cycle (12 h/12 h). Only healthy animals were used for experimental purpose. The pharmacokinetics and biodistribution study in Sprague-Dawley rats was approved by Center for Drug Safety Evaluation and Research, Shanghai Institute of Materia Medica, Chinese Academy of Sciences. A total of 144 Sprague-Dawley rats with each sex were used for toxicity study. Animals were randomly separated into four groups (18/sex/group). CVL218 was administered at doses of 20, 40, 60, and 160 mg/kg. For all the groups, 20 rats (10/sex/group) were randomly selected and euthanized at day 28, and their sections of various tissues and organs were obtained and frozen. Ten (5/sex/group) animals were euthanized after a 28-day drug free period, and their sections of tissues and organs were obtained and frozen. Six (3/sex/group) were euthanized after the blood samples were obtained. For pharmacokinetic and toxicity evaluation, clinical symptoms, mortality and the animals’ body weight were examined. Serum (0.5 mL) was collected to analyze toxicokinetics at different timepoints post drug administration. The plasma concentration-time data were analyzed using a noncompartmental method (Phoenix, version 1.3, USA) to derive the pharmacokinetic parameters.

[4] = test system: Vero E6 cells; conditions: CCK8, 48 h
[5] = Phase I clinical trial, ascending dose studies; format: in vivo, human; conditions: doses as high as 1000 mg QD and 500 mg BID; preliminary Phase I data
[6] = biodistribution (tissue distribution) study in rats; format: in vivo, Sprague-Dawley rats; conditions: 20 mg/kg oral, 180 min time point
[7] = 28-day toxicity and toxicokinetic study in cynomolgus monkeys; format: in vivo; conditions: for AUC0−24: dose not given
Description: Healthy male and female cynomolgus monkeys aged 3–4 years were purchased from Guangdong Landau Biotechnology, China. The animals were maintained in accordance with the Guide for the Care and Use of Laboratory Animals.
Cynomolgus monkey (5/sex/group) were selected using a computerized randomization procedure, and administered CVL218 by nasogastric feeding at dose levels of 0 (control), 5, 20, 80 mg/kg. Individual dose volumes were adjusted weekly based on body weight of monkeys. The monkeys were observed twice daily for viability/mortality and for any change in behavior, reaction to treatment or ill-health. Electrocardiograms, intraocular pressure, rectal temperature and body weight were recorded. For all the groups, […] of the animals were randomly selected and euthanized at day 28. The remaining animals were euthanized after a 28-day drug free period. Blood samples were taken before and at 0.5, 1, 2, 4, 8, and 24 h post-dose on days 1 and 28 of the treatment period. Pharmacokinetic evaluation was performed using a noncompartmental method (Phoenix, version 1.3, USA) and pharmacokinetic parameters were calculated for individual monkeys.

[8] = test system: SARS-CoV-2; experiment: in vitro anti-SARS-CoV-2 virus infection assay in Vero E6 cells, viral yield in supernatant by qRT-PCR; format: cell-based
[9] = test system: IL-10; experiment: LPS-induced IL-10 production in PBMCs (ELISA); format: cell-based, human; conditions: for LPS-induced expression of IL-10: 3 μM
Description: as §1

[10] = test system: IL-6; experiment: LPS-induced IL-6 production in PBMCs (ELISA); format: cell-based, human
Description: as §1

[11] = test system: IFN-γ; experiment: LPS-induced IFN-γ production in PBMCs (ELISA); format: cell-based, human; conditions: both 3 μM and 1 μM; 6 h and 24 h
Description: as §1

[12] = test system: SARS-CoV-2; experiment: indirect immunofluorescence / RT-PCR of virus nucleoprotein expression in infected Vero E6 cells; format: cell-based
[13] = target: nucleocapsid (N) protein of SARS-CoV-2 (SARS-CoV-2-N) (Severe acute respiratory syndrome coronavirus 2, UniProt P0DTC9); format: binding; conditions: for Kd: read-out: dissociation constant (KD)
[14] = design: method as in earlier work; conditions: rats, 54 mg/kg oral; cited from earlier work
[15] = test system: SARS-CoV-2; experiment: time-of-addition assay (full-time, entry, post-entry) in Vero E6 cells; format: cell-based; conditions: Severe acute respiratory syndrome coronavirus 2, Vero C1008, 14 h
[16] = design: method as in https://www.ema.europa.eu/en/medicines/human/EPAR/rubraca; conditions: ref https://www.ema.europa.eu/en/medicines/human/EPAR/rubraca; cited from earlier work
[17] = rats, oral gavage once a day for 28 days
[18] = monkeys, nasogastric, daily for 28 days
[19] = Severe acute respiratory syndrome coronavirus 2, Vero C1008, read-out: % Inhibition of SARS-CoV-2 replication

## CNCc1ccc(-c2cc3cc(F)cc(C(N)=O)c3o2)cc1 [CVL218]
[1]; CVL218 alone at 3.5 μM
  inhibition rate against SARS-CoV-2 replication: 36%
[2]
  LPS-induced concentration of TNF-α: significant decrease
[3]; female rats, day 1
  AUC0−24: 7605 ng·h/mL
[3]; female rats, day 28
  AUC0−24: 6657 ng·h/mL
[3]; male rats, day 1
  AUC0−24: 9102 ng·h/mL
[3]; male rats, day 28
  AUC0−24: 10253 ng·h/mL
[3]; rats, 20/60/160 mg/kg oral, 28 days + 28 days recovery
  body weight versus control groups: no significant difference
[3]; [17]
  maximum tolerable dose (MTD): 160 mg/kg
  no-observed adverse effect level (NOAEL): 20 mg/kg
[3]; rats, repeated dose
  signs of toxicity after 28-day treatment period: no apparent sign of toxicity
[4]
  CC50: 90.6 µM
[5]
  adverse events in human: no Grade II and above adverse events
  tolerability in human: well tolerated
[6]
  lung concentration compared to that in plasma: 188 fold
[7]; female monkeys, day 1
  AUC0−24: 19466 ng·h/mL
[7]; female monkeys, day 28
  AUC0−24: 18774 ng·h/mL
[7]; male monkeys, day 1
  AUC0−24: 16924 ng·h/mL
[7]; male monkeys, day 28
  AUC0−24: 22912 ng·h/mL
[7]; monkeys, 5, 20 or 80 mg/kg
  accumulation after consecutive 28 days of drug administration: not apparent
  increase of exposure (AUC0−24) with dose: approximately dose proportional
[7]; monkeys, high-dose (80 mg/kg) group, reversed after 28-day recovery
  body weight: slight decrease
[7]; [18]
  maximum tolerable dose (MTD): 80 mg/kg
  no-observed adverse effect level (NOAEL): 5 mg/kg
[8]; 3 μM, Vero E6, MOI 0.05, qRT-PCR, preliminary test
  % Inhibition of SARS-CoV-2 replication: 34.64%
[8]; Vero E6, MOI 0.05, 48 h, read-out: EC50 against SARS-CoV-2 replication
  EC50: 5.19 µM
[9]; after 6 h
  LPS-induced expression of IL-10: not downregulated
[9]; after 24 h, p < 0.001
  LPS-induced expression of IL-10: dramatically reduced
[10]; 3 μM, after both 6 h and 24 h incubation, p < 0.01
  LPS-induced production of IL-6: significantly repressed
[11]
  LPS-induced concentration of IFN-γ: significant decrease
[12]; 25 μM
  cytopathic effect in the infected cells: no obvious cytopathic effect
[12]; RT-PCR, 5, 15, 25 μM, 48 h post infection
  expression level of N gene compared to DMSO: Lower expression level
[12]; immunofluorescence microscopy, 5, 15, 25 μM, dose-response
  virus nucleoprotein (NP) expression compared to DMSO treated cells: significantly lower
[13]; SPR, immobilized SARS-CoV-2-N
  Kd: 3.1 µM

## CCOC(=O)C1=C[C@@H](OC(CC)CC)[C@H](NC(C)=O)[C@@H](N)C1 [Oseltamivir]
[8]; [19]
  inhibition at 3 µM: -13.7%

## CN(C)CC(=O)Nc1ccc2[nH]c(=O)c3ccccc3c2c1.Cl [PJ-34, N-(6-oxo-5,6-dihydrophenanthridin-2-yl)-N, N-dimethylacetamide. HCl]
[13]
  fold lower binding affinity than CVL218: about 22 fold
  Kd: 68.1 µM

## CC(=O)N[C@H]1[C@H]([C@H](O)[C@H](O)CO)OC(C(=O)O)=C[C@@H]1N=C(N)N [Zanamivir]
[8]; [19]
  inhibition at 3 µM: -10.4%

## CCOC(=O)c1c(CSc2ccccc2)n(C)c2cc(Br)c(O)c(CN(C)C)c12 [arbidol]
[14]
  tissue distribution post administration: mostly distributed in stomach and plasma
[8]; [19]
  inhibition at 30 µM: 99%
[8]; Severe acute respiratory syndrome coronavirus 2, Vero C1008, 3 μM, Vero E6, MOI 0.05, qRT-PCR, preliminary test, read-out: % Inhibition of SARS-CoV-2 replication
  inhibition at 3 µM: 21.8%

## NC(=O)c1nc(F)c[nH]c1=O [favipiravir, reference compound]
[1]; favipiravir alone at 30 μM
  inhibition rate against SARS-CoV-2 replication: no inhibitory activity

## O=C(c1cc(Cc2n[nH]c(=O)c3ccccc23)ccc1F)N1CCN(C(=O)C2CC2)CC1 [olaparib, reference compound]
[2]
  LPS-induced concentration of TNF-α: no significant inhibition
[8]; Severe acute respiratory syndrome coronavirus 2, Vero C1008, 3.2 μM, Vero E6, MOI 0.05, qRT-PCR, preliminary test, read-out: % Inhibition of SARS-CoV-2 replication
  inhibition at 3.2 µM: 15.3%
[9]; both 3 μM and 1 μM
  LPS-induced stimulation of IL-10: no significant inhibition
[10]; both 3 μM and 1 μM
  LPS-induced stimulation of IL-6: no significant inhibition
[11]
  LPS-induced concentration of IFN-γ: no significant inhibition
[13]; SPR, immobilized SARS-CoV-2-N
  dissociation constant (KD): no binding signal

## CCC(CC)COC(=O)[C@H](C)N[P@](=O)(OC[C@H]1O[C@@](C#N)(c2ccc3c(N)ncnn23)[C@H](O)[C@@H]1O)Oc1ccccc1 [remdesivir]
[15]; read-out: % Inhibition, Entry
  inhibition at 10 µM: 5.86%
[15]; read-out: % Inhibition, Full-time
  inhibition at 10 µM: 92.9%
[15]; read-out: % Inhibition, Post-entry
  inhibition at 10 µM: 91.9%

## CNCc1ccc(-c2[nH]c3cc(F)cc4c3c2CCNC4=O)cc1 [rucaparib]
[16]
  accessibility in the lung tissue: poor accessibility
